Data as given in BindingDB's records for PubMed 32092586 (Zhengzhou University, 2020).

Molecular target: Ubiquitin carboxyl-terminal hydrolase 7 (Homo sapiens, UniProt Q93009)
Experiment: Inhibition of human USP7 using Ub-AMC as substrate

Chain of Ubiquitin carboxyl-terminal hydrolase 7 (Q93009 whole entry): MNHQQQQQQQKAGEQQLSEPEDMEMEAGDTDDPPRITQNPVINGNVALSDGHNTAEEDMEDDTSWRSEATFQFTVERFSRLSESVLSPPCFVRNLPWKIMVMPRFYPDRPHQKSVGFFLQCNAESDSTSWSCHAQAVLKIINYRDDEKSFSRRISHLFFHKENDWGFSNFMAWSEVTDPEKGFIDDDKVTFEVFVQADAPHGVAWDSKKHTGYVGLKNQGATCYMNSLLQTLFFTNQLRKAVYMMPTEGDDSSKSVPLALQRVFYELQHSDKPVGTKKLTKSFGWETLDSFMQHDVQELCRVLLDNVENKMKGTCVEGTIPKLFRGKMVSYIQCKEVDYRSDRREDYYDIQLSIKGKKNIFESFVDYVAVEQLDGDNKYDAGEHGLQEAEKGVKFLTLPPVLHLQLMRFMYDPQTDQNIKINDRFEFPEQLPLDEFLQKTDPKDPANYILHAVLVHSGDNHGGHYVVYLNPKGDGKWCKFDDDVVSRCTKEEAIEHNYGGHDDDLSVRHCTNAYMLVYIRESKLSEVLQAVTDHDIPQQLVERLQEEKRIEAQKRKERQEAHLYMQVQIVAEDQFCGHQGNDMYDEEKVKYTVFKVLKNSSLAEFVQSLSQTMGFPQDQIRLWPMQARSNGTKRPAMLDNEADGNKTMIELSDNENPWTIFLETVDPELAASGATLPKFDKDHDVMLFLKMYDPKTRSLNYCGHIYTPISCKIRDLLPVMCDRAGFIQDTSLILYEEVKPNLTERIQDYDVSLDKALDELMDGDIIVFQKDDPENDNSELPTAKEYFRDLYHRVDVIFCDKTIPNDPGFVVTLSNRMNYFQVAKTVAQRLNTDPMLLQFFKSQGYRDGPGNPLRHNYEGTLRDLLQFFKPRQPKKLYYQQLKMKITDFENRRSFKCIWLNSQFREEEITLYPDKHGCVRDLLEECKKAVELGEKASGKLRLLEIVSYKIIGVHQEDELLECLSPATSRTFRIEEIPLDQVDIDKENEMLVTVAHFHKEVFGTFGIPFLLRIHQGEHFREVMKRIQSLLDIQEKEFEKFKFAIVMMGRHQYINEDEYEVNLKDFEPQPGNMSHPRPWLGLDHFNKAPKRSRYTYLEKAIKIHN

IC50: 0.09 µM
Compound: C[C@H](CC(=O)N1CCC(O)(Cn2cnc3cc(NC(=O)CCN4CCN(C)CC4)ccc3c2=O)CC1)c1ccccc1
